Results: US9675070B2 (BAYER CROPSCIENCE AG, priority 2013, dated 2017)
Where a name gives a salt, the structure may show the parent alone.

Columns and labels:
[1] = log P determination by HPLC on reversed-phase column (C18), EEC Directive 79/831 Annex V.A8; type: physicochemical; conditions: method a): Agilent 1100 LC, Zorbax Eclipse Plus C18, acetonitrile/water with formic acid, gradient 10-95% in 4.25 min, 55° C.
Protocol: Agilent 1100 LC system; 50*4.6 Zorbax Eclipse Plus C18 1.8 micron; mobile phase A: acetonitrile (0.1% formic acid); mobile phase B: water (0.09% formic acid); linear gradient from 10% acetonitrile to 95% acetonitrile in 4.25 min, then 95% acetonitrile for a further 1.25 min; oven temperature 55° C.; flow rate: 2.0 ml/min. Mass detection is carried out via an Agilend MSD system.
^a)Unless indicated otherwise, the following method was used to determine the log P values and masses: The determination of the given log P values was carried out in accordance with EEC Directive 79/831 Annex V.A8 by HPLC (High Performance Liquid Chromatography) on a reversed-phase column (C18). Agilent 1100 LC system; 50*4.6 Zorbax Eclipse Plus C18 1.8 micron; mobile phase A: acetonitrile (0.1% formic acid); mobile phase B: water (0.09% formic acid); linear gradient from 10% acetonitrile to 95% acetonitrile in 4.25 min, then 95% acetonitrile for a further 1.25 min; oven temperature 55° C.; flow rate: 2.0 ml/min. Mass detection is carried out via an Agilend MSD system. ^b)Note for the alternative method for determining log P values and masses: The stated log P values were determined in accordance with EEC Directive 79/831 Annex V.A8 by HPLC (High Performance Liquid Chromatography) using a reversed-phase column (C18). Waters ACQUITY UPLC-MS system; 2.1*50 mm Zorbax Eclipse Plus C18 1.8 μm 600 bar; injection volume: 0.5 ul about 1000 ppm; mobile phase A: acetonitrile (0.1% formic acid); mobile phase B: water (0.085% formic acid); linear gradient from 10% acetonitrile to 95% acetonitrile in 1.5 min, then 95% acetonitrile for a further 0.5 min; oven temperature 60° C.; flow rate: 1.0 ml/min. Mass detection is carried out via a Waters SQD system.

[2] = tested on: adult cat fleas (Ctenocephalides felis); assay: Ctenocephalides felis oral test (CTECFE); type: in vivo; conditions: application rate 100 ppm in citrated cattle blood; after 2 days
Protocol: Ctenocephalides felis-Oral Test ([…]) Solvent: dimethyl sulphoxide To produce a suitable preparation of active compound, 10 mg of active compound are mixed with 0.5 ml of dimethyl sulphoxide. Dilution with citrated cattle blood gives the desired concentration. About 20 unfed adult cat fleas (Ctenocephalides felis) are placed into a chamber which is closed at the top and bottom with gauze. A metal cylinder whose bottom end is closed with a parafilm is placed onto the chamber. The cylinder contains the blood/active ingredient preparation, which can be imbibed by the fleas through the parafilm membrane. After 2 days, the kill in % is determined. 100% means that all of the fleas have been killed; 0% means that none of the fleas have been killed.

[3] = tested on: L1 larvae of the Australian sheep blowfly (Lucilia cuprina); assay: Lucilia cuprina test (LUCICU); type: in vivo; conditions: application rate 100 ppm; minced horsemeat; after 2 days
Protocol: Lucilia cuprina Test (LUCICU) Solvent: dimethyl sulphoxide To produce a suitable preparation of active compound, 10 mg of active compound are mixed with 0.5 ml of dimethyl sulphoxide, and the concentrate is diluted with water to the desired concentration. About 20 L1 larvae of the Australian sheep blowfly (Lucilia cuprina) are transferred into a test vessel containing minced horsemeat and the active compound preparation of the desired concentration. After 2 days, the kill in % is determined. 100% means that all of the larvae have been killed; 0% means that none of the larvae have been killed.

[4] = tested on: adult houseflies (Musca domestica); assay: Musca domestica test (MUSCDO); type: in vivo; conditions: application rate 100 ppm; after 2 days
Protocol: Musca domestica Test (MUSCDO) Solvents: dimethyl sulphoxide To produce a suitable preparation of active compound, 10 mg of active compound are mixed with 0.5 ml of dimethyl sulphoxide, and the concentrate is diluted with water to the desired concentration. Vessels containing a sponge treated with sugar solution and the active compound preparation of the desired concentration are populated with 10 adult houseflies (Musca domestica). After 2 days, the kill in % is determined. 100% means that all of the flies have been killed; 0% means that none of the flies have been killed.

[5] = tested on: Tick nymphs (Amblyomma hebraeum); assay: Amblyomma hebaraeum test (AMBYHE), tick nymph immersion; type: in vivo; conditions: application rate 100 ppm; immersion one minute; after 42 days
Protocol: Amblyomma hebaraeum Test (AMBYHE) Solvent: dimethyl sulphoxide To produce a suitable preparation of active compound, 10 mg of active compound are mixed with 0.5 ml of dimethyl sulphoxide, and the concentrate is diluted with water to the desired concentration. Tick nymphs (Amblyomma hebraeum) are placed into perforated plastic beakers and immersed in the desired concentration for one minute. The ticks are transferred on filter paper into a Petri dish and stored in a climate-controlled cabinet. After 42 days, the kill in % is determined. 100% means that all of the ticks have been killed; 0% means that none of the ticks have been killed.

[6] = tested on: engorged adult female cattle ticks (Boophilus microplus); assay: Boophilus microplus injection test (BOOPMI Inj); type: in vivo; conditions: application rate 20 μg/animal; injection into abdomen; assessed after 7 days
Protocol: Boophilus microplus Injection Test (BOOPMI Inj)
(§1) Solvent: dimethyl sulphoxide
To produce a suitable preparation of active compound, 10 mg of active compound are mixed with 0.5 ml of solvent, and the concentrate is diluted with solvent to the desired concentration.
1 μl of the active compound solution is injected into the abdomen of 5 engorged adult female cattle ticks (Boophilus microplus). The animals are transferred into dishes and kept in a climate-controlled room.
(§2) The activity is assessed after 7 days by laying of fertile eggs. Eggs whose fertility is not visible from the outside are stored in a climate-controlled cabinet until the larvae hatch after about 42 days. An efficacy of 100% means that none of the ticks has laid any fertile eggs; 0% means that all eggs are fertile.

[7] = tested on: cattle ticks (Boophilus microplus) Parkhurst strain, SP-resistant; assay: Boophilus microplus dip test (BOOPMI Dip); type: in vivo; conditions: application rate 100 ppm, assessed after 7 days
Protocol: Boophilus microplus—Dip Test (BOOPMI Dip)
Test animals: cattle ticks (Boophilus microplus) Parkhurst strain, SP-resistant
as §1
10 mg of active compound are dissolved in 0.5 ml of dimethyl sulphoxide. To prepare a suitable formulation, the active compound solution is diluted with water to the concentration desired in each case.
This active compound preparation is pipetted into tubes. 8-10 adult engorged female cattle ticks (Boophilus microplus) are transferred into a further tube with holes. The tube is immersed into the active compound formulation, and all ticks are completely wetted. After the liquid has run out, the ticks are transferred on filter discs into plastic dishes and stored in a climate-controlled room.
as §2

[8] = tested on: larvae of the mustard beetle (Phaedon cochleariae); assay: Phaedon cochleariae spray test (PHAECO); type: in vivo; conditions: application rate 100 g/ha; Chinese cabbage leaf discs; after 7 days
Protocol: Phaedon cochleariae—Spray Test (PHAECO)
(§3) Solvents: 78.0 parts by weight of acetone
(§4) • 1.5 parts by weight of dimethylformamide Emulsifier: alkylaryl polyglycol ether
(§5) To produce a suitable preparation of active compound, 1 part by weight of active compound is dissolved using the stated parts by weight of solvent and made up with water comprising an emulsifier concentration of 1000 ppm until the desired concentration is reached. To produce further test concentrations, the preparation is diluted with emulsifier-containing water.
After 7 days, the efficacy in % is determined. 100% means that all of the beetle larvae have been killed; 0% means that none of the beetle larvae have been killed.

[9] = tested on: greenhouse red spider mite (Tetranychus urticae), OP-resistant; assay: Tetranychus urticae spray test, OP-resistant (TETRUR); type: in vivo; conditions: application rate 100 g/ha; bean leaf discs; after 6 days
Protocol: Tetranychus urticae—Spray Test, OP-Resistant (TETRUR)
as §3, §4, §5
Discs of bean leaves (Phaseolus vulgaris) which are infested by all stages of the greenhouse red spider mite (Tetranychus urticae) are sprayed with an active compound preparation of the desired concentration.
After 6 days, the efficacy in % is determined. 100% means that all of the spider mites have been killed; 0% means that none of the spider mites have been killed.

[10] = tested on: caterpillars of the armyworm (Spodoptera frugiperda); assay: Spodoptera frugiperda spray test (SPODFR); type: in vivo; conditions: application rate 100 g/ha; maize leaf discs; after 7 days
Protocol: Spodoptera frugiperda—Spray Test (SPODFR)
as §3, §4, §5
Leaf discs of maize (Zea mays) are sprayed with an active compound preparation of the desired concentration and, after drying, populated with caterpillars of the armyworm (Spodoptera frugiperda).
After 7 days, the efficacy in % is determined. 100% means that all of the caterpillars have been killed; 0% means that none of the caterpillars have been killed.

| Structure (SMILES) | chromatographic logP [1] | kill in % [2] | kill in % [3] | kill in % [4] | kill in % [5] | efficacy (no laying of fertile eggs) [6] | efficacy (no laying of fertile eggs) [7] | efficacy in % [8] | efficacy in % [9] | efficacy in % [10] |
| --- | --- | --- | --- | --- | --- | --- | --- | --- | --- | --- |
| Cn1nc(C(F)(F)C(F)(F)F)c(C(F)(F)F)c1-n1cnc(-c2cccc(CN)c2)c1 [1-(3-{1-[1-methyl-3-(pentafluoroethyl)-4-(trifluoromethyl)-1H-pyrazol-5-yl]-1H-imidazol-4-yl}phenyl)methanamine hydrochloride] | 1.83 |  |  |  |  |  |  |  |  |  |
| Cn1nc(C(F)(F)C(F)(F)F)c(C(F)(F)F)c1-n1cc(-c2cccc(CNC(=O)C3CC3)c2)cn1 [Ic-17] |  | 100% | 100% | 100% | 90% | 100% | 100% | 100% | 100% |  |
| CCC(=O)NCc1cc(-c2cn(-c3c(C(F)(F)F)c(C(F)(F)C(F)(F)F)nn3C)nn2)ccc1F [Ig-5] |  | 100% | 100% | 100% |  | 100% | 100% | 100% |  | 100% |
| CC(=O)NCc1cc(-c2cn(-c3c(C(F)(F)F)c(C(F)(F)C(F)(F)F)nn3C)nn2)ccc1F [Ig-1] |  | 100% | 100% | 100% |  | 100% | 80% | 100% | 100% |  |
| Cn1nc(C(F)(F)C(F)(F)F)c(C(F)(F)F)c1-n1cnc(I)c1 [5-(4-iodo-1H-imidazol-1-yl)-1-methyl-3-(pentafluoroethyl)-4-(trifluoromethyl)-1H-pyrazole] | 3.47 |  |  |  |  |  |  |  |  |  |
| CC(=O)NCc1cccc(-c2cnn(-c3c(C(F)(F)F)c(C(F)(F)C(F)(F)F)nn3C)c2)c1 [Ic-16] |  | 100% | 100% | 100% | 100% | 100% | 100% | 100% | 90% |  |
| Cn1nc(C(F)(F)C(F)(F)F)c(C(F)(F)F)c1-n1cc(Br)cn1 [4-bromo-2′-methyl-5′-(pentafluoroethyl)-4′-(trifluoromethyl)-2′H-1,3′-bipyrazole] | 4.17 |  |  |  |  |  |  |  |  |  |
| CCC(=O)NCc1cccc(-c2cn(-c3c(C(F)(F)F)c(C(F)(F)C(F)(F)F)nn3C)cn2)c1 [Ib-5, N-(3-{1-[1-methyl-3-(pentafluoroethyl)-4-(trifluoromethyl)-1H-pyrazol-5-yl]-1H-imidazol-4-yl}benzyl)propanamide] | 3.14 |  |  |  |  |  |  |  |  |  |
| Cn1nc(C(F)(F)C(F)(F)F)c(C(F)(F)F)c1-n1cc(-c2ccc(F)c(CNC(=O)C3CC3)c2)cn1 [Ic-12] |  | 100% | 100% | 100% | 100% | 100% |  | 100% | 90% | 100% |
| CC(=O)NCc1cc(-c2cnn(-c3c(C(F)(F)F)c(C(F)(F)C(F)(F)F)nn3C)c2)ccc1F [Ic-4] |  | 100% | 100% | 100% | 100% | 100% | 100% | 100% | 100% | 83% |
| CCC(=O)NCc1cc(-c2cnn(-c3c(C(F)(F)F)c(C(F)(F)C(F)(F)F)nn3C)c2)ccc1F [Ib-8, N-{2-fluoro-5-[2′-methyl-5′-(pentafluoroethyl)-4′-(trifluoromethyl)-2′H-1,3′-bipyrazol-4-yl]benzyl}propanamide] | 3.27 | 95% | 100% |  |  | 100% |  | 100% |  |  |
| Cn1nc(C(F)(F)C(F)(F)F)c(C(F)(F)F)c1-n1cc(-c2cccc(CN)c2)cn1 [1-{3-[2′-methyl-5′-(pentafluoroethyl)-4′-(trifluoromethyl)-2′H-1,3′-bipyrazol-4-yl]phenyl}methanamine hydrochloride (1:1)] | 1.93 |  |  |  |  |  |  |  |  |  |
| CCC(=O)NCc1cc(-c2cnn(-c3c(C(F)(F)F)c(C(F)(F)C(F)(F)F)nn3C)c2)ccc1F [Ic-2] |  | 100% | 100% | 100% | 100% | 100% | 100% | 100% | 100% | 100% |
